Laboratory results from BindingDB's records for patent US11542283 (Jiangsu Chia Tai Fenghai Pharmaceutical, 2023).

Molecular target: T1, Proteasome subunit beta type-5 (Homo sapiens, UniProt P28074)
T1 sequence (P28074 whole entry): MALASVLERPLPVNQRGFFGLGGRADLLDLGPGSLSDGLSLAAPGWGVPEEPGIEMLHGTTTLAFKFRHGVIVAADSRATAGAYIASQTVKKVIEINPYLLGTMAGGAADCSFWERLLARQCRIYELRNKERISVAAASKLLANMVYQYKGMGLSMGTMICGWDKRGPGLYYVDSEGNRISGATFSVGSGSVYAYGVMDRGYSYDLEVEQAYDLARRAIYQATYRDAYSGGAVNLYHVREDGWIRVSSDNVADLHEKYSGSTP
Assay: Proteasome Inhibitory Activity
Excerpt: The proteasome used in the present invention is human erythrocyte 20S proteasome, and the enzyme, fluorescent substrate and test buffer are all purchased from Enzo.

| SMILES | IC50 [nM] |
| --- | --- |
| CSC[C@H](NC(=O)c1cc(Cl)ccc1Cl)C(=O)N[C@@H](CC(C)C)B(O)O [US11542283, Compound IV-9] | 4.86 |
| CC(C)C[C@H](NC(=O)CNC(=O)c1cc(Cl)ccc1Cl)B1OC(=O)CC(CC(=O)O)(C(=O)O)O1 (some centres not stated) [US11542283, Compound MLN-9708] | 7.47 |
